Data taken from US8153658B2, “Piperidine derivative or salt thereof” (Astellas Pharma, Inc., priority 2006, dated 2012).
Counter-ions that a name gives are not always drawn. Like-named read-outs stand apart in the source and are kept apart here.

How the values were obtained:
human CaSR = target: T1, human CaSR (Homo sapiens, UniProt P41180); experiment: Human calcium sensing receptor (CaSR) agonism test (Fluo-3 / FLIPR); format: cell-based; conditions: HEK 293 cell stably expressing human CaSR; 0.5 mM Ca2+; 2 mM Ca2+ group = 100%; read-out: EC50 (compound concentration showing 50% human CaSR agonistic activity)
T1 construct: a human CaSR open reading frame (ORF) was contained in the pcDNA3.1/Zeo(+) vector; expressed in transfected cells
T1 sequence (P41180 20-1078): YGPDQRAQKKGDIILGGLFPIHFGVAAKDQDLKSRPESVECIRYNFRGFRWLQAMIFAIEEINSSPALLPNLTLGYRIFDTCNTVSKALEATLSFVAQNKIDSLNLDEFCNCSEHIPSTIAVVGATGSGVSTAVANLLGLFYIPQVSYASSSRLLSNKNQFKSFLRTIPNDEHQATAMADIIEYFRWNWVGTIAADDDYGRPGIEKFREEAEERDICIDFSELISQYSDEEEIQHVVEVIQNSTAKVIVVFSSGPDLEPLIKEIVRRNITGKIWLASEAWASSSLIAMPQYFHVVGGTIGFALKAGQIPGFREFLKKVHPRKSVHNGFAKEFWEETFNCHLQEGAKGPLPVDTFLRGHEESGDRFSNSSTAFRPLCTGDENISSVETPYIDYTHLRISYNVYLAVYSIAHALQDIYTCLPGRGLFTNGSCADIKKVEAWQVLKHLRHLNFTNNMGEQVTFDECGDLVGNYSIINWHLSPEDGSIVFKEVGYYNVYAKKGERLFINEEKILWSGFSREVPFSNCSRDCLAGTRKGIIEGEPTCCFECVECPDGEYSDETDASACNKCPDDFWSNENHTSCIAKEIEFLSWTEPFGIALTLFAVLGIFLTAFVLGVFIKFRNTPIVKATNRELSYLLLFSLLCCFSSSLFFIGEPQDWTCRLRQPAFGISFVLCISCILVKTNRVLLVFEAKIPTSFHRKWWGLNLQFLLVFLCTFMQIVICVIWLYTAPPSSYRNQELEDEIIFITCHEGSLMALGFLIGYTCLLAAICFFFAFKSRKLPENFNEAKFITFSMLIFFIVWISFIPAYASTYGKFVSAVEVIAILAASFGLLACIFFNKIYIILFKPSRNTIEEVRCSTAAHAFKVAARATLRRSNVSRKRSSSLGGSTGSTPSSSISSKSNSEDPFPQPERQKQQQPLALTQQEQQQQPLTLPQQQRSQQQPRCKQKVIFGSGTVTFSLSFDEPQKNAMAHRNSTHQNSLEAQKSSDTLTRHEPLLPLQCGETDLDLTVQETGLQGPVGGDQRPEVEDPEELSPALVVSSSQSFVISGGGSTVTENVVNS
Text: Test 1. Human calcium sensing receptor (CaSR) agonism test
1) Preparation of Human CaSR Expression Vector
A DNA fragment coding for human CaSR was cloned in the standard method.
Illustratively, using 203 to 2387 of NM_000388 as a DNA fragment D4, and 2210 to 3633 as a DNA fragment B2, they were amplified using a human kidney cDNA (manufactured by Invitrogen) as the template and using a DNA polymerase (a registered trade name: Pyrobest, manufactured by Takara Bio), and respectively cloned into a pCR2.1 vector using a pCR2.1-Topo vector (manufactured by Invitrogen). Next, the DNA fragments prepared by digesting the pCR2.1-D4 with SpeI and XbaI were inserted into the same sites of pcDNA3.1/Zeo(+) vector. Successively, the fragments prepared by digesting pCR2.1-B2 with SacI and XbaI were inserted into the SacI and XbaI sites of previously prepared pcDNA3.1/Zeo(+)-D4(SpeI-XbaI), thereby obtaining a human CaSR expression vector pcDNA3.1/Zeo(+)-hCaSR in which a human CaSR open reading frame (ORF) was contained in the pcDNA3.1/Zeo(+) vector.
2) Preparation of Human CaSR Expression Cell
The human CaSR expression vector was transferred into a HEK 293 cell using a transfection reagent (registered trademark: FuGene 6, manufactured by Roche Diagnostics). After the gene transfer, this was cultured in a DMEM (manufactured by Invitrogen) medium containing 40 μg/ml Zeocin (registered trademark, manufactured by Invitrogen) and a 10% fetal bovine serum at 37° C. for 2 weeks in the presence of 5% CO2, thereby obtaining Zeocin-resistant clones. A human CaSR stably expressing HEK 293 clone was obtained from these clones by selection using the responsiveness to extracellular Ca^2+ as an index.
3) Human CaSR Agonism Test
The HEK 293 cell stably expressing human CaSR was inoculated into a poly-D-lysine-coated black clear bottom 96 well plate (manufactured by BD Biosciences). Hanks' balanced salt solution (HBSS) (Ca^2+ (−), Mg^2+ (−), manufactured by Invitrogen) containing a 20 mM HEPES (2-[4-(2-hydroxyethyl)-1-piperazinyl]ethanesulfonic acid) buffer (pH 7.4), 2.5 mM of probenecid (manufactured by Sigma), and 0.1% of bovine serum albumin was prepared as a washing buffer. After the inoculation and the subsequent overnight culturing, the medium was discarded, the washing buffer supplemented with 1 mM CaCl2 and 10 μM Fluo-3 AM (trade name, manufactured by DOJINDO) was added thereto in 100 μl per well portions, and then the incubation was carried out at 37° C. for 1 hour in the presence of 5% CO2. This was washed twice with 200 μl of the washing buffer, replaced by 100 μl of the washing buffer supplemented with 0.5 mM CaCl2 and allowed to stand still for 10 minutes, and then the responsiveness to each compound to be evaluated was detected using a plate reader for fluorometry image analysis use (registered trademark: FLIPR, manufactured by Molecular Devices). In this connection, the compound to be evaluated was used by optionally diluting with the washing buffer supplemented with 0.5 mM Ca^2+.
The human CaSR agonistic activity strength of each compound to be evaluated was calculated by defining the solvent group as 0% and the 2 mM of Ca^2+ in the final concentration group as 100%, and the compound concentration showing 50% activity (EC50) was calculated from a concentration-activity curve by the method of least squares.

CYP2D6 = CYP2D6 (Homo sapiens, UniProt P10635); experiment: Human CYP2D6 inhibition test; format: biochemical; design: purchased BD Gentest 456217; conditions: CYP2D6 7.5 pmol/mL; fluorescence substrate AMMC 1.5 μM; 37° C. 30 minutes
Protocol: Test 3. Human CYP2D6 Inhibition Test
Inhibitory activity evaluation for CYP2D6 was carried out by measuring it in accordance, roughly, with a reference (“Drug Metabolism and Disposition”, 2001, vol. 29, p. 1196-1200).
Final concentrations of the reagents in the enzyme reaction solution were respectively set to CYP2D6=7.5 pmol/mL (manufactured by BD Gentest, Catalog No. 456217), reduced type nicotinamide adenine dinucleotide phosphate (NADPH) regeneration system (0.0081 mM nicotinamide adenine dinucleotide phosphate (NADP+), 0.41 mM glucose-6-phosphate, 0.41 mM MgCl2, 0.4 units glucose-6-phosphate dehydrogenase), and a fluorescence substrate AMMC=1.5 μM, 100 mM potassium phosphate buffer (pH 7.4). Each compound was made into a 50% acetonitrile solution and added to the enzyme reaction solution (acetonitrile final concentration 2.5%). The enzyme reaction was carried out at 37° C. for 30 minutes, the reaction was stopped using a stopping liquid (0.1 M tris(hydroxymethyl)aminomethane (Tris-base):acetonitrile=20:80), and the fluorescence intensity was then measured. The concentration showing 50% inhibition (IC50) was calculated from the thus obtained fluorescence intensity, by defining the enzyme activity at a time of no compound addition as 100%.

[1] = Measurement of rat plasma calcium concentration; format: in vivo; conditions: read-out: Rat plasma calcium concentration reducing ratio (%) 2 hours after administration (3 mg/kg)
Protocol: Test 2. Measurement of Rat Plasma Calcium Concentration and Plasma PTH Concentration
The compounds of the present invention were administered to rats, and their influences upon the plasma calcium concentration and the plasma PTH concentration were examined. The test was carried out by single oral administration of the compounds of the present invention and the control compounds to 5 to 6 normal male rats, or male rats with renal failure, respectively As a vehicle group, 0.5% of a methyl cellulose (MC) solution was administered at a dose of 5 ml/kg. As a reference compound, cinacalcet was dissolved in the MC solution and administered at a dose of 3 mg/kg. Each of the compounds of the present invention was dissolved or suspended in the MC solution, and administered at a dose of 1, 3 or 10 mg/kg.
Blood samples were collected from the orbital venous plexus under ether anesthesia before the administration and 2 hours, 4 hours, or 8 hours in some cases, after the administration, and the plasma calcium concentration was measured using Calcium E-Test Wako (manufactured by Wako Pure Chemical Industries), and the plasma PTH concentration was measured using a Rat Intact PTH ELISA Kit (manufactured by Immutopics).

[2] = normal male rats, single oral administration 3 mg/kg, 2 hours after administration

Chain of CYP2D6 (P10635 whole entry): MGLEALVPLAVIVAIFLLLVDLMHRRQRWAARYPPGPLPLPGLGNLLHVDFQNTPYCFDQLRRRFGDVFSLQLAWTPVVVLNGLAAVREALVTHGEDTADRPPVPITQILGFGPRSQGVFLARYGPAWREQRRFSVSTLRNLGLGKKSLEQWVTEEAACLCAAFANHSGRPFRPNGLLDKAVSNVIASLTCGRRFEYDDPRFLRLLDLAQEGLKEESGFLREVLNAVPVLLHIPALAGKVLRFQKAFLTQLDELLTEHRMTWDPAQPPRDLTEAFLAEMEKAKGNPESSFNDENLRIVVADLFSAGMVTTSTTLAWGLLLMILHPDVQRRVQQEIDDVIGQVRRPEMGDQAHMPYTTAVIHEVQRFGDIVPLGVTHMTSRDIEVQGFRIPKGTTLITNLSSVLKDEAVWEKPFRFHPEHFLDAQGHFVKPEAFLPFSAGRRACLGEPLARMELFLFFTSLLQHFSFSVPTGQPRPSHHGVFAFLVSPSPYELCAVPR

| Structure (SMILES) | EC50 (human CaSR) | IC50 (CYP2D6) | inhibition in vivo at 3 mg/kg ([1]; po, 2 h) | inhibition in vivo at 3 mg/kg [1, 2] |
| --- | --- | --- | --- | --- |
| COc1cc(C(=O)O)ccc1NC(=O)N1CCC(c2ccccc2)C(CN[C@H](C)c2cccc3ccccc23)C1 (stereo partly drawn) [Example 3, 3-methoxy-4-({[3-({[(1R)-1-(1-naphthyl)ethyl]amino}methyl)-4-phenylpiperidin-1-yl]carbonyl}amino)benzoic acid] | 1.8 nM | ≥ 20000 nM | – | – |
| C[C@@H](NCC1CN(C(=O)Nc2ccc(C(=O)O)cc2)CCC1c1cccc(F)c1)c1cccc2ccccc12 (stereo partly drawn) [Example 13, 4-({[4-(3-fluorophenyl)-3-({[(1R)-1-(1-naphthyl)ethyl]amino}methyl)piperidin-1-yl]carbonyl}amino)benzoic acid hydrochloride] | 2.9 nM | ≥ 20000 nM | – | – |
| C[C@@H](NCC1CCN(C(=O)Oc2ccc(C(=O)O)cc2)CC1c1ccccc1)c1cccc2ccccc12 (stereo partly drawn) [Example 25, 4-({[4-({[(1R)-1-(1-naphthyl)ethyl]amino}methyl)-3-phenylpiperidin-1-yl]carbonyl}oxy)benzoic acid hydrochloride] | 13 nM | ≥ 20000 nM | 17% | – |
| C[C@@H](NCC1CCN(c2cccc(C(=O)O)n2)CC1c1ccccc1)c1cccc2ccccc12 (stereo partly drawn) [Example 30, 6-[4-({[(1R)-1-(1-naphthyl)ethyl]amino}methyl)-3-phenylpiperidin-1-yl]pyridine-2-carboxylic acid hydrochloride] | 5.5 nM | ≥ 20000 nM | – | – |
| C[C@@H](NCC1CCN(c2ncc(C(=O)O)cc2Cl)CC1c1ccccc1)c1cccc2ccccc12 (stereo partly drawn) [Example 31, 5-chloro-6-[4-({[(1R)-1-(1-naphthyl)ethyl]amino}methyl)-3-phenylpiperidin-1-yl]nicotinic acid hydrochloride] | 5 nM | – | – | 24% |
| C[C@@H](NCC1CCN(c2ncc(C(=O)O)cc2Cl)CC1c1ccccc1F)c1cccc2ccccc12 (stereo partly drawn) [Example 32, 5-chloro-6-[3-(2-fluorophenyl)-4-({[(1R)-1-(1-naphthyl)ethyl]amino}methyl)piperidin-1-yl]nicotinic acid hydrochloride] | 7.5 nM | – | – | 34% |
| COc1cccc([C@@H](C)NCC2CCN(c3ncc(C(=O)O)cc3Cl)CC2c2ccccc2)c1 (stereo partly drawn) [Example 33, 5-chloro-6-[4-({[(1R)-1-(3-methoxyphenyl)ethyl]amino}methyl)-3-phenylpiperidin-1-yl]nicotinic acid hydrochloride] | 20 nM | – | – | 29% |
| C[C@@H](NCC1CCN(c2cccc(C(=O)O)c2)CC1c1ccccc1)c1cccc2ccccc12 (stereo partly drawn) [Example 34, 3-[4-({[(1R)-1-(1-naphthyl)ethyl]amino}methyl)-3-phenylpiperidin-1-yl]benzoic acid hydrochloride] | 8.1 nM | ≥ 20000 nM | – | – |
| C[C@@H](NCC1CCN(c2nc(C(=O)O)cs2)CC1c1ccccc1)c1cccc2ccccc12 (stereo partly drawn) [Example 39, 2-[4-({[(1R)-1-(1-naphthyl)ethyl]amino}methyl)-3-phenylpiperidin-1-yl]-1,3-thiazole-4-carboxylic acid hydrochloride] | 2.6 nM | – | – | 23% |
| C[C@@H](NCC1CCN(c2c(F)cc(-c3nnn[nH]3)cc2F)CC1c1ccccc1)c1cccc2ccccc12 (stereo partly drawn) [Example 53, (1R)—N-({1-[2,6-difluoro-4-(1H-tetrazol-5-yl)phenyl]-3-phenylpiperidin-4-yl}methyl)-1-(1-naphthyl)ethaneamine hydrochloride] | 3.8 nM | – | – | 20% |
| C[C@@H](NCC1CCN(c2c(F)cc(C(=O)O)cc2F)CC1c1ccccc1)c1csc2ccccc12 (some centres unmarked) [Example 87] | 11 nM | ≥ 20000 nM | – | – |
| C[C@@H](NCC1CCN(c2cc(C(F)(F)F)c(C(=O)O)cn2)CC1c1cccc(F)c1)c1cccc2ccccc12 (some centres unmarked) [Example 98] | 17 nM | ≥ 20000 nM | – | – |
| C[C@@H](NCC1CCN(c2ccc(C(=O)O)cn2)CC1c1ccccc1F)c1cccc2ccccc12 (some centres unmarked) [Example 104] | 14 nM | – | – | – |
